Common to all, as to type: cell-based
Assay [1] deals with T1, TYK2 (Homo sapiens, UniProt P29597). As to the kind of experiment: TYK2 degradation MSD assay in human PBMC cells. More on the design: endogenous in cells; host or cells: human PBMC. To be noted: 4 to 24 hours incubation, read-out: TYK2 MSD DC50 rating in human PBMC. The essentials:
(§1)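 MSD electrochemiluminescence readout of residual TYK2 in RIPA lysates after 4–24 h compound exposure at 37° C. Dosing: 9 concentrations, 1:3 steps, top 1 to 10 μM. DC50 fitted by four-parameter inhibitor vs. response regression.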

Assay [2] concerns the target T1, TYK2. As to the kind of experiment: TYK2 degradation MSD assay in EBV-B cells. Set-up: endogenous in cells; host or cells: EBV-B cells. To be noted: 4 to 24 hours incubation, read-out: TYK2 MSD DC50 rating in EBV-B. The essentials:
as §1

For assay [3], the target named is T1, TYK2. As to the kind of experiment: TYK2 degradation MSD assay in OCI-LY10 cells. Particulars: 4 to 24 hours incubation, read-out: TYK2 MSD DC50 rating in OCI-LY10. More on the design: endogenous in cells; host or cells: EBV-B cells. The essentials: as §1

T1 sequence (P29597 whole entry): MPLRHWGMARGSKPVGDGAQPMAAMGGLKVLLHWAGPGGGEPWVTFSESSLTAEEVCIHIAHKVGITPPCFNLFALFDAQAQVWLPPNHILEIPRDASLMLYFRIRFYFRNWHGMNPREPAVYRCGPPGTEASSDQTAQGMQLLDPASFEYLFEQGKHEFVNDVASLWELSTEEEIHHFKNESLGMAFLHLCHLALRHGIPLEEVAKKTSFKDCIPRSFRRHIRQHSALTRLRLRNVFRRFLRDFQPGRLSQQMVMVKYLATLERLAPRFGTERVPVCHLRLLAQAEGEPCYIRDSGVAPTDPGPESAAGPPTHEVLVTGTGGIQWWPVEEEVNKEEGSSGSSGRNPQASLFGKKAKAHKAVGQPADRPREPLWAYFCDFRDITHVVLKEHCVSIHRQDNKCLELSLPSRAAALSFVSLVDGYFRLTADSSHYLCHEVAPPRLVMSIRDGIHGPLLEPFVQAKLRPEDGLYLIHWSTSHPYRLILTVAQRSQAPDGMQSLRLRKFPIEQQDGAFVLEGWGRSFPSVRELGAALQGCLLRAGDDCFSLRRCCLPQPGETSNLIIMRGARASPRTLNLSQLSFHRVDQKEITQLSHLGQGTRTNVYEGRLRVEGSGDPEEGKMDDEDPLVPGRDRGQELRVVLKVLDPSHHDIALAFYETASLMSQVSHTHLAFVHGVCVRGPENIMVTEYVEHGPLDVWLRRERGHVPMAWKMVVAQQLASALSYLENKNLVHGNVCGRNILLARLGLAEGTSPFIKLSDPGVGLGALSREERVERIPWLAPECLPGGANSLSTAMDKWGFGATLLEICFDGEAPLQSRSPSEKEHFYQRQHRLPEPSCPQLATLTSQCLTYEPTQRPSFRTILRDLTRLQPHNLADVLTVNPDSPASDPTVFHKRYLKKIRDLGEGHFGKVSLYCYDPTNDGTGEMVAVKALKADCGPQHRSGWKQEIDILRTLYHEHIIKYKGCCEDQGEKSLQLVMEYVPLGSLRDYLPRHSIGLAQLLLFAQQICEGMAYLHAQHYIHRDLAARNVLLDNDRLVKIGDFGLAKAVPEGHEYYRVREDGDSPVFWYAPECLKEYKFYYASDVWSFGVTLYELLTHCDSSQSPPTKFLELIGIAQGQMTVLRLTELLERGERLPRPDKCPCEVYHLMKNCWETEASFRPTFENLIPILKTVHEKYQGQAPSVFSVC

Take `CNc1cc(Nc2cccc(N3CCC(CN4CCN(c5ccc(-c6ccc7c(c6)n(C)c(=O)n7C6CCC(=O)NC6=O)cc5)CC4)CC3)c2OC)nn2c(C(=O)N[C@@H]3C[C@@H]3F)cnc12` (stereo partly drawn) [Example K619]: the DC50 on TYK2 [1] was over 0.1 µM; at TYK2 [2], over 0.1 µM; on TYK2 [3], 0.001 to 0.01 µM.
On to `CNc1cc(N2CCN(c3ccc(CN4CCN(c5ccc(-c6ccc7c(c6)n(C)c(=O)n7C6CCC(=O)NC6=O)cc5)CC4)cc3)CC2)nn2c(C(=O)N[C@@H]3C[C@@H]3F)cnc12` (stereo partly drawn) [Example K620], for which the DC50 at TYK2 [1], at TYK2 [2] and on TYK2 [3] was over 0.1 µM each time.
On to `CNc1cc(Nc2cccc(C3CCC(CN4CCN(c5ccc(-c6ccc7c(c6)n(C)c(=O)n7C6CCC(=O)NC6=O)cc5)CC4)CC3)c2OC)nn2c(C(=O)N[C@@H]3C[C@@H]3F)cnc12` (stereo partly drawn) [Example K621], for which the DC50 on TYK2 [1] was over 0.1 µM; at TYK2 [2], over 0.1 µM; on TYK2 [3], 0.001 to 0.01 µM.
As to `CNc1cc(Nc2cccc(N3CCC(CN4CCC(c5ccc(-c6ccc7c(c6)n(C)c(=O)n7C6CCC(=O)NC6=O)cc5)CC4)CC3)c2OC)nn2c(C(=O)N[C@@H]3C[C@@H]3F)cnc12` (stereo partly drawn) [Example K622], the results for the DC50 at TYK2 [1], at TYK2 [2] and on TYK2 [3] were over 0.1 µM, over 0.1 µM and under 0.001 µM, respectively.
With `CNc1cc(Nc2cccc(N3CCC(CN4CC5(C4)CN(c4ccc(-c6ccc7c(c6)n(C)c(=O)n7C6CCC(=O)NC6=O)cc4)C5)CC3)c2OC)nn2c(C(=O)N[C@@H]3C[C@@H]3F)cnc12` (stereo partly drawn) [Example K623], the results for the DC50 at TYK2 [1], at TYK2 [2] and at TYK2 [3] were over 0.1 µM, over 0.1 µM and under 0.001 µM, respectively.
For `CNc1cc(N2CCc3c(-c4ccc(CN5CCC6(CC5)CCN(C(=O)c5cccc(N7CCC(=O)NC7=O)c5)CC6)cn4)cccc32)nn2c(C(=O)N[C@@H]3C[C@@H]3F)cnc12` [Example K625], the 50% degradation concentration (DC50) was over 0.1 µM on TYK2 [1], over 0.1 µM on TYK2 [2] and under 0.001 µM at TYK2 [3].
For `CNc1cc(N2CCc3c(-c4ccc(C(=O)N5CCC(CN6CCN(c7ccc(-c8ccc9c(c8)n(C)c(=O)n9C8CCC(=O)NC8=O)cc7)CC6)CC5)cn4)cccc32)nn2c(C(=O)N[C@@H]3C[C@@H]3F)cnc12` (stereo partly drawn) [Example K627], the DC50 was over 0.1 µM on TYK2 [1], over 0.1 µM at TYK2 [2] and under 0.001 µM on TYK2 [3].
Take `CNc1cc(Nc2cccc(-c3ccc(C(=O)N4CCN(CC5CCN(c6ccc(-c7ccc8c(c7)n(C)c(=O)n8C7CCC(=O)NC7=O)cc6)CC5)CC4)cn3)c2OC)nn2c(C(=O)N[C@@H]3C[C@@H]3F)cnc12` (stereo partly drawn) [Example K628]: the DC50 was over 0.1 µM at TYK2 [1], over 0.1 µM on TYK2 [2] and 0.001 to 0.01 µM on TYK2 [3].
For the compound `CNc1cc(Nc2cccc(-c3ccc(C(=O)N4CCC(CN5CCN(c6ccc(-c7ccc8c(c7)n(C)c(=O)n8C7CCC(=O)NC7=O)cc6)CC5)CC4)cn3)c2OC)nn2c(C(=O)N[C@@H]3C[C@@H]3F)cnc12` (stereo partly drawn) [Example K629], the half-maximal degradation concentration (DC50) is over 0.1 µM on TYK2 [1], over 0.1 µM on TYK2 [2] and under 0.001 µM at TYK2 [3].
On to `CNc1cc(Nc2cccc(-c3ccc(CN4CCN(c5ccc(-c6ccc7c(c6)n(C)c(=O)n7C6CCC(=O)NC6=O)cc5)CC4)cn3)c2OC)nn2c(-c3cn(C(C)C)nn3)cnc12` (stereo not drawn) [Example K630], for which the DC50 on TYK2 [1] was over 0.1 µM; on TYK2 [2], over 0.1 µM; on TYK2 [3] it was 0.001 to 0.01 µM.
With `CNc1cc(N2CCc3c(-c4ccc(CN5CCN(c6ccc(-c7ccc8c(c7)n(C)c(=O)n8C7CCC(=O)NC7=O)cc6)CC5)cn4)cccc32)nn2c(-c3cn(C(C)C)nn3)cnc12` (stereo not drawn) [Example K631], the DC50 on TYK2 [1] is over 0.1 µM; on TYK2 [2], over 0.1 µM; on TYK2 [3], 0.001 to 0.01 µM.
In the case of `CNc1cc(Nc2cccc(-c3ccc(C(=O)N4CCN([C@H]5CC[C@H](c6ccc(-c7ccc8c(c7)n(C)c(=O)n8C7CCC(=O)NC7=O)cc6)CC5)CC4)cn3)c2)nn2c(C(=O)N[C@@H]3C[C@@H]3F)cnc12` (stereo partly drawn) [Example K632], the results for the DC50 at TYK2 [1], on TYK2 [2] and at TYK2 [3] were over 0.1 µM, over 0.1 µM and under 0.001 µM, respectively.
Take `CNc1cc(Nc2cccc(-c3ccc(C(=O)N4CCN(c5ccc(-c6ccc7c(c6)n(C)c(=O)n7C6CCC(=O)NC6=O)cc5)CC4)cn3)c2)nn2c(C(=O)N[C@@H]3C[C@@H]3F)cnc12` (stereo partly drawn) [Example K633]: the figures for the DC50 at TYK2 [1], on TYK2 [2] and at TYK2 [3] were over 0.1 µM, over 0.1 µM and under 0.001 µM, respectively.
In the case of `CNc1cc(N2CCc3c(CN4CCC(CN5CCN(c6ccc7c(c6)n(C)c(=O)n7C6CCC(=O)NC6=O)CC5)CC4)cccc32)nn2c(C(=O)N[C@@H]3C[C@@H]3F)cnc12` (stereo partly drawn) [Example K634], the DC50 at TYK2 [1] is over 0.1 µM; at TYK2 [2], over 0.1 µM; on TYK2 [3], under 0.001 µM.
Consider `CNc1cc(N2CCc3c(N4CCC(CN5CCC(C#Cc6cccc7c6n(C)c(=O)n7C6CCC(=O)NC6=O)CC5)CC4)cccc32)nn2c(C(=O)N[C@@H]3C[C@@H]3F)cnc12` (stereo partly drawn) [Example K635], for which the 50% degradation concentration (DC50) at TYK2 [1] is over 0.1 µM; on TYK2 [2], over 0.1 µM; at TYK2 [3], 0.001 to 0.01 µM.
Consider `CNc1cc(N2CCc3c(-c4ccc(CN5CCN(c6cccc7c6n(C)c(=O)n7C6CCC(=O)NC6=O)CC5)cn4)cccc32)nn2c(C(=O)N[C@@H]3C[C@@H]3F)cnc12` (stereo partly drawn) [Example K637], for which the results for the DC50 at TYK2 [1], on TYK2 [2] and at TYK2 [3] were over 0.1 µM, over 0.1 µM and 0.001 to 0.01 µM, respectively.
On to `CNc1cc(N2CCc3c(N4CCC(CN5CCN(c6ccc7c(c6)n(C)c(=O)n7C6CCC(=O)NC6=O)CC5)CC4)cccc32)nn2c(C(=O)N[C@@H]3C[C@@H]3F)cnc12` (stereo partly drawn) [Example K638], for which the DC50 on TYK2 [1] is over 0.1 µM; on TYK2 [2], over 0.1 µM; on TYK2 [3] it was under 0.001 µM.
`CNc1cc(Nc2cccc(C3CCN(CCc4cccc5c4n(C)c(=O)n5C4CCC(=O)NC4=O)CC3)c2)nn2c(C(=O)N[C@@H]3C[C@@H]3F)cnc12` (stereo partly drawn) [Example K641]: the DC50 on TYK2 [1], on TYK2 [2] and at TYK2 [3] was over 0.1 µM throughout.
As for `Cn1c(=O)n(C2CCC(=O)NC2=O)c2ccc(-c3ccc(N4CCN(Cc5ccc(-c6cccc(Nc7nn8c(C(=O)N[C@@H]9C[C@@H]9F)cnc8c8c7OCCN8)c6Cl)nc5)CC4)cc3)cc21` (stereo partly drawn) [Example K642], the DC50 at TYK2 [1] was over 0.1 µM; on TYK2 [2], over 0.1 µM; at TYK2 [3], 0.001 to 0.01 µM.
For the compound `CNc1cc(N2CCc3c(N4CCN(C5CCN(c6ccc7c(c6)n(C)c(=O)n7C6CCC(=O)NC6=O)CC5)CC4)cccc32)nn2c(C(=O)N[C@@H]3C[C@@H]3F)cnc12` (stereo partly drawn) [Example K645], the DC50 on TYK2 [1] is over 0.1 µM; at TYK2 [2] it was over 0.1 µM; on TYK2 [3], under 0.001 µM.
As for `CNc1cc(N2CCc3c(N4CCN(C5CC6(CCN(c7ccc8c(c7)n(C)c(=O)n8C7CCC(=O)NC7=O)CC6)C5)CC4)cccc32)nn2c(C(=O)N[C@@H]3C[C@@H]3F)cnc12` (stereo partly drawn) [Example K646], the DC50 at TYK2 [1] was over 0.1 µM; at TYK2 [2], over 0.1 µM; on TYK2 [3], under 0.001 µM.
Regarding `CNc1cc(Nc2cccc(C3CCN(C(=O)Cc4cccc5c4n(C)c(=O)n5C4CCC(=O)NC4=O)CC3)c2)nn2c(C(=O)N[C@@H]3C[C@@H]3F)cnc12` (stereo partly drawn) [Example K647], the 50% degradation concentration (DC50) at TYK2 [1], at TYK2 [2] and at TYK2 [3] was over 0.1 µM each time.
As for `CNc1cc(Nc2ccc(F)c(-c3ccc(Cc4ccc(-c5ccc6c(c5)n(C)c(=O)n6C5CCC(=O)NC5=O)cc4)cn3)c2OC)nn2c(C(=O)N[C@@H]3C[C@@H]3F)cnc12` (stereo partly drawn) [Example K648], the DC50 is over 0.1 µM on TYK2 [1], over 0.1 µM at TYK2 [2] and 0.001 to 0.01 µM on TYK2 [3].
Consider `CNc1cc(N2CCc3c(-c4cc(N5CCN([C@H]6CC[C@H](c7ccc8c(c7)n(C)c(=O)n8C7CCC(=O)NC7=O)CC6)CC5)ccn4)cccc32)nn2c(C(=O)NC3CC3F)cnc12` (stereo partly drawn) [Example K650, N-[(1R,2S)-2-fluorocyclopropyl]-8-(methylamino)-6-[4-(4-{4-[(1r,4r)-4-[1-(2,6-dioxopiperidin-3-yl)-3-methyl-2-oxo-1,3-benzodiazol-5-yl]cyclohexyl]piperazin-1-yl}pyridin-2-yl)-2,3-dihydroindol-1-yl]imidazo[1,2-b]pyridazine-3-carboxamide], for which the results for the DC50 at TYK2 [1], on TYK2 [2] and on TYK2 [3] were over 0.1 µM, over 0.1 µM and under 0.001 µM, respectively.
With `CNc1cc(N2CCc3c(-c4cc(N5CCN(c6ccc7c(c6)n(C)c(=O)n7C6CCC(=O)NC6=O)CC5)ccn4)cccc32)nn2c(C(=O)C[C@@H]3C[C@@H]3F)cnc12` (stereo partly drawn) [Example K652], the DC50 at TYK2 [1], at TYK2 [2] and at TYK2 [3] was over 0.1 µM throughout.
`CNc1cc(N2CCc3c(-c4cc(N5CCN(c6cccc7c6n(C)c(=O)n7C6CCC(=O)NC6=O)CC5)ccn4)cccc32)nn2c(C(=O)N[C@@H]3C[C@@H]3F)cnc12` (stereo partly drawn) [Example K653]: the DC50 on TYK2 [1], at TYK2 [2] and on TYK2 [3] was over 0.1 µM each time.
For `CNc1cc(N2CCc3c(-c4cc(N5CCN(CC6CCN(c7cccc8c7n(C)c(=O)n8C7CCC(=O)NC7=O)CC6)CC5)ccn4)cccc32)nn2c(C(=O)NC3CC3F)cnc12` (stereo not drawn) [Example K656], the results for the DC50 on TYK2 [1], on TYK2 [2] and at TYK2 [3] were over 0.1 µM, over 0.1 µM and 0.001 to 0.01 µM, respectively.
As for `CNc1cc(N2CCc3c(-c4cc(CN5CCN(c6ccc7c(c6)n(C)c(=O)n7C6CCC(=O)NC6=O)CC5)ccn4)cccc32)nn2c(C(=O)NC3CC3F)cnc12` (stereo not drawn) [Example K657], the DC50 at TYK2 [1] is over 0.1 µM; at TYK2 [2], over 0.1 µM; at TYK2 [3], under 0.001 µM.
`CNc1cc(N2CCc3c(-c4cc(CN5CCN(c6ccc(-c7ccc8c(c7)n(C)c(=O)n8C7CCC(=O)NC7=O)cc6)CC5)ccn4)cccc32)nn2c(C(=O)N[C@@H]3C[C@@H]3F)cnc12` (stereo partly drawn) [Example K658]: the DC50 on TYK2 [1] was over 0.1 µM; on TYK2 [2], over 0.1 µM; at TYK2 [3], 0.001 to 0.01 µM.

For orientation: DC50 means the concentration giving 50% degradation.

These data come from US20250051338A1, “TYK2 DEGRADERS AND USES THEREOF” (Kymera Therapeutics, Inc., priority 2021, published 2025).
